The values below come from paper PMC10564737, “Structure-based design of a phosphotyrosine-masked covalent ligand targeting the E3 ligase SOCS2” (Nature Communications, 2023).

Experiment [1] deals with T1, SBC2 (Homo sapiens, UniProt O14508).
T1 construct: SOCS2 (amino acids 32–198); His6 (N, cleaved yes); made in house; host or cells: E. coli BL21(DE3)
Briefly: Surface plasmon resonance (SPR) with SBC2 immobilized on the chip. Format: binding. Conditions: for improvement of binding affinity compared to 5: SPR. An excerpt: (§1) First, we decided to optimize the N-terminal region of 1 while maintaining the N-methylamide group at the C-terminus. To generate analogs rapidly, we employed a solid phase synthesis using methyl indole AM resin. After Fmoc deprotection, the resin was loaded with Fmoc-Tyr (PO(OBzl)2)-OH[29]. Subsequent coupling with various commercially available carboxylic acids and cleavage with TFA allowed the rapid synthesis of N-methylcarboxamide phosphotyrosines (Supplementary Fig. 1). We introduced different substituents at the N-terminus to cover a range of physicochemical properties (e.g. alicyclic, heterocyclic, aromatic with electron-withdrawing and electron-donating groups) to maximize potential interactions (see Table 1 for representative examples). Binding affinities of the synthesized compounds for SOCS2 were measured via two orthogonal biophysical binding assays: (1) surface plasmon resonance (SPR) with SBC2 immobilized on the chip (Supplementary Fig. 7); and (2) ^19F ligand-observed displacement NMR assays, providing two orthogonal biophysical measurements of dissociation constants (KD)[29],[31]. We found an excellent correlation between the KD values measured via the two techniques (Table 1). Para-substituted benzyl moieties yielded the greatest contributions to binding affinity and there were only slight differences between electron-withdrawing groups such as a methyl ester and electron-donating such as methoxy group.
SPR experiments were performed using a Biacore S200 instrument (GE Healthcare) in 20 mM HEPES pH 7.5, 150 mM NaCl, 1 mM TCEP, 0.005% Tween20, 2% DMSO buffer at 10 °C. Biotinylated SBC2 was immobilized onto a chip surface (the final surface density of biotinylated SBC2 was ~3000–4000 RU). AviTagged-SBC was biotinylated using BirA enzyme as per manufacturer’s protocol (Avidity). Compounds were serially diluted in the running buffer and injected individually: contact time 60 s, flow rate 30 μL/min, dissociation time 150 s, using a stabilization period of 30 s and syringe wash (50% DMSO) between injections. Data analysis was carried out using Biacore Evaluation Software (GE Healthcare). All data were double-referenced for reference surface and blank injection. The processed sensograms were fit to a steady-state affinity using a 1:1 binding model for KD estimation.
A general note: SPR reads the build-up and loss of mass on a sensor chip optically.

In experiment [2] the target is T1, SBC2. The experiment is described as follows: Isothermal titration calorimetry (ITC), direct titration. The experiment is classed as binding. To be noted: for Kd: ITC KD, direct ITC, 298 K. On the procedure:
Experiments were performed with ITC200 instrument (Malvern) in 100 mM HEPES pH 7.5, 50 mM NaCl, 0.5 mM TCEP at 298 K. The ITC titration consisted of 0.4 μl initial injection (discarded during data analysis) followed by 19 of 2 μl injections at 120 s interval between injections. 1 mM of the ligands in 2–4% DMSO were titrated into 100 μM SBC2. […] Binding data was subtracted from a control titration where ligand was titrated into buffer, and fitted using a one-set-of-site binding model to obtain dissociation constant (Kd), binding enthalpy (ΔH), and stoichiometry (N) using MicroCal PEAQ-ITC Analysis Software1.1.0.1262 and MicroCal ITC-ORIGIN Analysis Software 7.0 (Malvern).

In experiment [3] the target is GHR pY595 peptide (Homo sapiens) (UniProt P10912). To be noted: cited from earlier work.
Chain of GHR pY595 peptide (Homo sapiens) (P10912 whole entry, looked up, tested part not stated): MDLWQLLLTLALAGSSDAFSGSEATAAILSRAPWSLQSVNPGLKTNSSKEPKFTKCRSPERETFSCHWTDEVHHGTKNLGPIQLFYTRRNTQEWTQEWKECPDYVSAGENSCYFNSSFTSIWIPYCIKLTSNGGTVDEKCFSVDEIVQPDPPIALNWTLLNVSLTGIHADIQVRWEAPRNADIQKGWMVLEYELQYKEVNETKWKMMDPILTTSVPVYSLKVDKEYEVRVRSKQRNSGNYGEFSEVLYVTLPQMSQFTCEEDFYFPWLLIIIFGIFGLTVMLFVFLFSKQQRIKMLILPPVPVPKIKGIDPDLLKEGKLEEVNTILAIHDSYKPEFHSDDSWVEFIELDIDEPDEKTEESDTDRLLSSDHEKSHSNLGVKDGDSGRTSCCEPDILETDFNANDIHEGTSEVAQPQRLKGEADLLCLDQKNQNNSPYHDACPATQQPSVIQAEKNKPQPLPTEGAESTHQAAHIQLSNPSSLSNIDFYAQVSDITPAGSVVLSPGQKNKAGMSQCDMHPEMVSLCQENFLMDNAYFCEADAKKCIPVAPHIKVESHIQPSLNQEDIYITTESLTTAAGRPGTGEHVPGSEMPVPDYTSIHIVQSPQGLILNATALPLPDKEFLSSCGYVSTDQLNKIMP
Experiment [4] addresses T1, SBC2. Briefly: 19F ligand-observed displacement (CPMG) NMR assay. Format: binding. To be noted: Table 1, n = 1.
Text: as §1, with “We introduced different substituents at the N-terminus to cover a range of physicochemical properties (e.g. alicyclic, heterocyclic, aromatic with electron-withdrawing and electron-donating groups) to maximize potential interactions (see Table 1 for representative examples).” left out, “Para-substituted benzyl moieties yielded the greatest contributions to binding affinity and there were only slight differences between electron-withdrawing groups such as a methyl ester and electron-donating such as methoxy group.” left out
Experiments were performed using an Avance III 500 MHz Bruker spectrometer equipped with a 5 mm CPQCI 1H/19 F/13 C/15 N/D Z-GRD cryoprobe at 298 K as described previously. Spectra were recorded using 80 scans of a CPMG pulse sequence that attenuates broad resonances. […] All NMR data were processed and analyzed using TopSpin (Bruker). The dissociation constant was calculated as described previously.

Setting [5] is: Table 2, second-round library, n = 1.

Where “and” joins values, the source holds several entries; their conditions need not be identical. Identical values can stand only once.

T1 sequence (O14508 32-198): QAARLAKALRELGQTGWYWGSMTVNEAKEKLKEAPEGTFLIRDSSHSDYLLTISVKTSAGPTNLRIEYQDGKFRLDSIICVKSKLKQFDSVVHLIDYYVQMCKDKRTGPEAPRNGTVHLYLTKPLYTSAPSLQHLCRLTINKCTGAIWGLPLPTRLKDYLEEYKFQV
T1 sequence (Q15370 1-104 partner limits assumed): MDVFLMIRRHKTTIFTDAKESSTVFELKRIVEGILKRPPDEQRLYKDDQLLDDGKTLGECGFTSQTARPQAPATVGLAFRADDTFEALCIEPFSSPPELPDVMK
T1 sequence (Q15369 17-112 partner limits assumed): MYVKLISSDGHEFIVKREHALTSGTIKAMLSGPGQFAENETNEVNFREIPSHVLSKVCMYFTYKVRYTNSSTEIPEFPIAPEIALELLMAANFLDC
Chain of SOCS2 SH2 (O14508 45-159): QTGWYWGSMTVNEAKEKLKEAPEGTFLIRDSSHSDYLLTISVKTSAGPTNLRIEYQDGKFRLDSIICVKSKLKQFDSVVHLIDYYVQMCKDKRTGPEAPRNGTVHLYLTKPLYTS

Compound `C=CCc1cccc(CNC(=O)[C@H](Cc2ccc(OP(=O)(O)O)cc2)NC(=O)Cc2ccc(F)cc2)c1` [Compound 14, (S)-4-(3-((3-allylbenzyl)amino)-2-(2-(4-fluorophenyl)acetamido)-3-oxopropyl)phenyl phosphate] had a Kd on SBC2 [1] (setting [5]) of 2.4 µM. Moreover, at SBC2 [2], the “ITC ΔG” value was -8.61 kcal/mol; the “ITC ΔH” value is -6.31 kcal/mol; the “ITC −TΔS” value is -2.26 kcal/mol; the affinity, expressed as Kd, was 0.48 µM.

For `Cc1cccc(CNC(=O)[C@H](Cc2ccc(OP(=O)(O)O)cc2)NC(=O)Cc2ccc(F)cc2)c1` [Compound 10, (S)-4-(2-(2-(4-fluorophenyl)acetamido)-3-((3-methylbenzyl)amino)-3-oxopropyl)phenyl phosphate], at SBC2 [1], the “improvement of binding affinity compared to 5” value is reported as 10 fold. On SBC2 [1] (setting [5]), this compound displayed a Kd of 3.7 µM. At SBC2 [2], the “ITC ΔG” value was -8.12 kcal/mol, the “ITC −TΔS” value is -2.31 kcal/mol and the Kd stood at 1.1 µM.

For the compound `O=C(Cc1ccc(F)cc1)N[C@@H](Cc1ccc(OP(=O)(O)O)cc1)C(=O)NCc1ccc(F)cc1` [Compound 9, (S)-4-(3-((4-fluorobenzyl)amino)-2-(2-(4-fluorophenyl)acetamido)-3-oxopropyl)phenyl phosphate], the “improvement of binding affinity compared to 5” value on SBC2 [1] stood at 10 fold. The Kd on SBC2 [1] (setting [5]) came out at 4.2 µM. Also, on SBC2 [2], the “ITC ΔG” value is -7.65 kcal/mol, the “ITC −TΔS” value was -3.55 kcal/mol and the Kd is 2.6 µM.

For the compound SOCS2 SH2 (from UniProt O14508), the Kd in experiment [3] is 1.1 µM.

As to `CNC(=O)[C@H](Cc1ccc(OP(=O)(O)O)cc1)NC(C)=O` [Compound 1], the Kd on SBC2 [1] (Table 1, n = 1) is 269 µM; on SBC2 [2] it was 192 µM and 190 µM; on SBC2 [4] it was 186 µM. The “weaker binding than the full phosphorylated peptide” value at SBC2 [2] came out at 100 fold.

Compound `Cc1cc(CNC(=O)[C@H](Cc2ccc(OP(=O)(O)O)cc2)NC(=O)Cc2ccc(F)cc2)ccc1F` [Compound 11, (S)-4-(3-((4-fluoro-3-methylbenzyl)amino)-2-(2-(4-fluorophenyl)acetamido)-3-oxopropyl)phenyl phosphate] registered a Kd on SBC2 [1] (setting [5]) of 2.7 µM. For the same compound, at SBC2 [2], the “ITC ΔG” value was -8.23 kcal/mol, the “ITC ΔH” value was -5.25 kcal/mol, the “ITC −TΔS” value was -2.98 kcal/mol and the Kd amounted to 1 µM.

Consider `CCc1cc(CNC(=O)[C@H](Cc2ccc(OP(=O)(O)O)cc2)NC(=O)Cc2ccc(F)cc2)ccc1F` [Compound 12, (S)-4-(3-((3-ethyl-4-fluorobenzyl)amino)-2-(2-(4-fluorophenyl)acetamido)-3-oxopropyl)phenyl phosphate], for which binding at SBC2 [1] (setting [5]) was characterised by a dissociation constant (Kd) of 2.2 µM. Besides, on SBC2 [2], the “ITC ΔG” value was -8.59 kcal/mol; the “ITC ΔH” value is -8.16 kcal/mol; the “ITC −TΔS” value was -0.43 kcal/mol; the Kd was 0.5 µM and 0.51 µM.

`C=CCc1cc(CNC(=O)[C@H](Cc2ccc(OP(=O)(O)O)cc2)NC(=O)Cc2ccc(F)cc2)ccc1F` [Compound 13] returned a Kd on SBC2 [1] (setting [5]) of 2.4 µM. Further, on SBC2 [2], the “ITC ΔG” value was -8.75 kcal/mol; the “ITC −TΔS” value is -1.62 kcal/mol; the affinity, expressed as Kd, was 0.38 µM.

As for `CNC(=O)[C@H](Cc1ccc(OP(=O)(O)O)cc1)NC(=O)Cc1ccc(F)cc1` [Compound 5], the Kd stood at 49 µM at SBC2 [1] (Table 1, n = 1) and 32 µM at SBC2 [4].

One may read the Kd as the constant that tells how readily two partners part at equilibrium.
